The target of assay [1] is T1, human recombinant histamine H2 receptor (Homo sapiens, UniProt P25021).
T1 construct: expressed in transfected cells; host or cells: Chinese hamster ovary (CHO) K1 cells
The assay can be described thus: Histamine H2 radioligand binding ([125I]Aminopotentidine). The conditions noted are these: read-out: Histamine Binding (1 μM) H2, percent inhibition of specific binding, 1 μM. In outline: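 Receptor source: human recombinant H2 in CHO-K1 cells, assayed in 50 mM phosphate pH 7.4. Competition against 0.1 nM [125I]aminopotentidine, 120 min, 25 °C; 3 μM tiotidine sets nonspecific binding, filter-bound counts give specific binding.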

Assay [2] concerns the target T2, human recombinant serotonin (5-Hydroxytryptamine) 5-HT6 receptor (Homo sapiens, UniProt P50406).
T2 construct: expressed in transfected cells; host or cells: human HeLa cells
Description: Serotonin 5-HT6 radioligand binding ([3H]LSD). The following applies: read-out: Inhibition of ligand binding, Serotonin 5-HT6 (percent inhibition of specific binding); for inhibition at 0.1 µM: compound at 0.1 μM; for inhibition at 1 µM: compound at 1 μM. As to the method:
Compounds of the invention were incubated with 1.5 nM [3H]Lysergic acid diethylamide (LSD) for 120 min. at 37° C. […] Receptor proteins were filtered and washed, the filters were then counted to determine [3H]LSD specifically bound. Compounds were screened at 1 μM or lower, using 1% DMSO as vehicle. Biochemical assay results are presented as the percent inhibition of specific binding in Table 10.

The target of assay [3] is human recombinant serotonin (5-Hydroxytryptamine) 5-HT7 receptor (Homo sapiens, UniProt P34969). Description: Serotonin 5-HT7 radioligand binding ([3H]LSD). The following applies: for inhibition at 1 µM: compound at 1 μM. From the text:
Receptor proteins were filtered and washed, the filters were then counted to determine [^3H]LSD specifically bound.

For assay [4], the target named is T3, human recombinant adrenergic α2A receptor (Homo sapiens, UniProt P08913).
T3 construct: expressed in transfected cells; host or cells: insect Sf9 cells
T3 sequence (P08913 1-465): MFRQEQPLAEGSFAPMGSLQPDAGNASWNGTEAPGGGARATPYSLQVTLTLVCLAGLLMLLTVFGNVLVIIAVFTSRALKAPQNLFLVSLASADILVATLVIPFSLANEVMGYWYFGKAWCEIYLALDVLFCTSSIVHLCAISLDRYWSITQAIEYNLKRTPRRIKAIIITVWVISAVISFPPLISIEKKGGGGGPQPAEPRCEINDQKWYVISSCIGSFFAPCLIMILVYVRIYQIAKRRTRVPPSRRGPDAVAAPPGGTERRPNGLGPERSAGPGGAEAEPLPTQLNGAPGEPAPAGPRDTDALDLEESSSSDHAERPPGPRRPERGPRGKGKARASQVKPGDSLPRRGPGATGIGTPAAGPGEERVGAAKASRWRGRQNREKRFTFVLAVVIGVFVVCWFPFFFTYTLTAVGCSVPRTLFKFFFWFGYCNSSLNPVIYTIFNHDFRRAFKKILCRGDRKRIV
Description: Adrenergic α2A radioligand binding ([3H]MK-912). The conditions noted are these: compound at 1 μM. The method, then: To evaluate in radioligand binding assays the activity of compounds of the invention, human recombinant adrenergic α2A receptor expressed in insect Sf9 cells (Uhlen S et al. J Pharmacol Exp Ther. 271:1558, 1994) in a modified Tris-HCl buffer (50 mM Tris-HCl, pH 7.4, 12.5 mM MgCl2, 2 mM EDTA) was used. Compounds of invention were incubated with 1 nM [^3H]MK-912 for 60 min. at 25° C. MK912 is (2S-trans)-1,3,4,5′,6,6′,7,12b-octahydro-1′,3′-dimethyl-spiro[2H-benzofuro[2,3-a]quinolizine-2,4′(1′H)-pyrimidin]-2′(3′H)-one hydrochloride Non-specific binding was estimated in the presence of 10 μM WB-4101 (2-(2,6-Dimethoxyphenoxyethyl)aminomethyl-1,4-benzodioxane hydrochloride). Receptor proteins were filtered and washed, the filters were then counted to determine [^3H]MK-912 specifically bound. Compounds were screened at 1 μM or lower, using 1% DMSO as vehicle. Biochemical assay results are presented as the percent inhibition of specific binding in Table 9.

Assay [5] deals with T4, human recombinant adrenergic α2B receptor (Homo sapiens, UniProt P18089).
T4 construct: expressed in transfected cells; host or cells: Chinese hamster ovary (CHO-K1) cells
T4 sequence (P18089 1-450): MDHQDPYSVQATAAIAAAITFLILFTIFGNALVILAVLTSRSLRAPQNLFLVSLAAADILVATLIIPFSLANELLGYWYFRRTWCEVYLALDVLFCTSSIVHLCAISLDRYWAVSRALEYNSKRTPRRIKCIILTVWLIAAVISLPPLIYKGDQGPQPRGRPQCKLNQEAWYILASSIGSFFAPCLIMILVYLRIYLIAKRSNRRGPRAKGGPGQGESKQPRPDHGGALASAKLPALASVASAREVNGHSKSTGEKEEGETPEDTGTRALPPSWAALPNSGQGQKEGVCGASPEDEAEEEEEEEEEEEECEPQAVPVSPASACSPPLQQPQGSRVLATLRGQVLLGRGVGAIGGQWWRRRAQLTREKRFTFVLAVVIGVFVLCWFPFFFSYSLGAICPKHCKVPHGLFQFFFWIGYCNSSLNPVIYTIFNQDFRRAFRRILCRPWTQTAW
The assay can be described thus: Adrenergic α2B radioligand binding ([3H]Rauwolscine). The conditions noted are these: compound at 1 μM. As to the method:
To evaluate in radioligand binding assays the activity of compounds of the invention, human recombinant adrenergic α2B receptor expressed in Chinese hamster ovary (CHO-K1) cells (Uhlen S et al. Eur J Pharmacol. 343(1):93, 1998) in a modified Tris-HCl buffer (50 mM Tris-HCl, pH 7.4, 12.5 mM MgCl2, 1 mM EDTA, 0.2% BSA) was used. Compounds of the invention were incubated with 2.5 nM [^3H]Rauwolscine for 60 min. at 25° C. Non-specific binding was estimated in the presence of 10 μM Prozosin. Receptor proteins were filtered and washed, the filters were then counted to determine [^3H]Rauwolscine specifically bound. Compounds were screened at 1 μM or lower, using 1% DMSO as vehicle. Biochemical assay results are presented as the percent inhibition of specific binding in Table 9.

Where [6] appears, read: read-out: Inhibition of ligand binding, Serotonin 5-HT7 (percent inhibition of specific binding).
Setting [7] is: percent inhibition of specific binding, read-out: Inhibition of ligand binding, Adrenergic α2A.
Setting [8] is: percent inhibition of specific binding, read-out: Inhibition of ligand binding, Adrenergic α2B.
Where [9] appears, read: read-out: Inhibition of ligand binding, Adrenergic α2A (percent inhibition of specific binding).
[10] abbreviates: […] [3H]Rauwolscine, read-out: Inhibition of ligand binding, Adrenergic α2B (percent inhibition of specific binding).

The source of these data is US8906925B2, “Pyrido[4,3-B]indoles containing rigid moieties” (Medivation Technologies, Inc., priority 2008, dated 2014).

Read-outs that look alike come from different tables or passages of the source.

T1 sequence (P25021 whole entry): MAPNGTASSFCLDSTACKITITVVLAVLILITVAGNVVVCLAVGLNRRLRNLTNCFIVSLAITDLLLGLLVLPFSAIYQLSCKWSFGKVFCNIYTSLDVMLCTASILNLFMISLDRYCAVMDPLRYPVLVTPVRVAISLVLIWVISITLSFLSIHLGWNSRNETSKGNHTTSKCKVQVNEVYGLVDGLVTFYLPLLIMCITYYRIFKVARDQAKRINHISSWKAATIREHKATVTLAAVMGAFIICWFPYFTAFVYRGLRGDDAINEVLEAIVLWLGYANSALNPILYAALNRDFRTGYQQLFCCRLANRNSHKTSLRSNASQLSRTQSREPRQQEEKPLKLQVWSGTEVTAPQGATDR
human recombinant serotonin (5-Hydroxytryptamine) 5-HT7 receptor, sequence (P34969 whole entry): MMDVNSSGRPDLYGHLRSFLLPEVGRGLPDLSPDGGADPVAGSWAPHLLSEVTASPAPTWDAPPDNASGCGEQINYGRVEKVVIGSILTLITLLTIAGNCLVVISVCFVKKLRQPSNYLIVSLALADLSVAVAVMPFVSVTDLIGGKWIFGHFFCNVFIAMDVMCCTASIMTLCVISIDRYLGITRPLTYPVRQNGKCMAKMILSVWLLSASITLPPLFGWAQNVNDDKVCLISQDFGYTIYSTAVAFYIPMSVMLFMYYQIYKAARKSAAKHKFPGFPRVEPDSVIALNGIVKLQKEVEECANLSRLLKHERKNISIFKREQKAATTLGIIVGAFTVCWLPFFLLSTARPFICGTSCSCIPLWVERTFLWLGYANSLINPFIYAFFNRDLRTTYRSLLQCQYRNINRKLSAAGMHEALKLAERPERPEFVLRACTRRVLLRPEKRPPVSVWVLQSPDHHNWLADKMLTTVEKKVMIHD
T2 sequence (P50406 whole entry): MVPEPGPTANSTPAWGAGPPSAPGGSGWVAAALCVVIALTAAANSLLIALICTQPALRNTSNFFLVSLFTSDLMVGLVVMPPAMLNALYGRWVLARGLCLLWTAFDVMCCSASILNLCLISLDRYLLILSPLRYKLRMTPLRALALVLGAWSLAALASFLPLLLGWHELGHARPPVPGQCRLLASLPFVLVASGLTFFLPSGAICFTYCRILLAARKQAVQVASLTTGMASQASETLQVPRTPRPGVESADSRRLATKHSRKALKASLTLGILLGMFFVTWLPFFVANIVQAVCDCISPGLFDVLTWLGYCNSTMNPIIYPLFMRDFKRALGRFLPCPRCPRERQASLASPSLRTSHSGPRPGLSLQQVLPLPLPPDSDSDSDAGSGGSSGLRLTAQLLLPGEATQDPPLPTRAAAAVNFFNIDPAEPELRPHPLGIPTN

In the case of `CN1CCc2c(c3cc(Cl)ccc3n2CC(C)(O)c2ccc(F)cc2)C1` (stereo not drawn) [Compound 45, 1-(8-chloro-1,2,3,4-tetrahydro-2-methylpyrido[4,3-b]indol-5-yl)-2-(4-fluorophenyl)propan-2-ol], the inhibition at 1 µM in assay [1] stood at 94%; in assay [2], 94%; in assay [3] (setting [6]) it was 92%; in assay [4] (setting [7]) it was 89%; in assay [5] (setting [8]), 109%. For the same compound, in assay [2], the inhibition at 0.1 µM stood at 48%.
Turning to `COc1ccc(C(C)(O)Cn2c3c(c4cc(C)ccc42)CN(C)CC3)cc1F` (stereo not drawn) [Compound 173, 1-(2,8-dimethyl-3,4-dihydro-1H-pyrido[4,3-b]indol-5(2H)-yl)-2-(3-fluoro-4-methoxyphenyl)propan-2-ol], the inhibition at 1 µM was found to be 78% in assay [1]; 85% in assay [2]; 103% in assay [3] (setting [6]); 94% in assay [4] (setting [7]); 98% in assay [5] (setting [8]).
For `CCCCC(O)(Cn1c2c(c3cc(Cl)ccc31)CN(C)CC2)c1ccc(F)cc1` (stereo not drawn) [Compound 178, 1-(8-chloro-2-methyl-3,4-dihydro-1H-pyrido[4,3-b]indol-5(2H)-yl)-2-(4-fluorophenyl)hexan-2-ol], the inhibition at 1 µM in assay [1] stood at 89%; in assay [2] it was 95%; in assay [3] (setting [6]), 48%; in assay [4] (setting [7]), 88%; in assay [5] (setting [8]), 79%.
For `CN1CCc2c(c3cc(Cl)ccc3n2CC(O)(c2ccc(F)cc2)C2CC2)C1` (stereo not drawn) [Compound 82, 2-(8-chloro-1,2,3,4-tetrahydro-2-methylpyrido[4,3-b]indol-5-yl)-1-cyclopropyl-1-(4-fluorophenyl)ethanol], the inhibition at 1 µM in assay [1] was 99%; in assay [2], 103%; in assay [3] (setting [6]), 93%; in assay [4] (setting [7]), 96%; in assay [5] (setting [8]) it was 99%. For the same compound, the inhibition at 0.1 µM in assay [2] was 90%; in assay [3] (compound at 0.1 μM, read-out: Inhibition of ligand binding, Serotonin 5-HT7 (percent inhibition of specific binding)), 86%. Besides, in assay [3] (compound at 0.1 μM, 0.1 µM), the “Inhibition of ligand binding, Serotonin 5-HT7 (percent inhibition of specific binding)” value was determined as 95%.
`CCOC(=O)/C=C(/Cn1c2c(c3cc(C)ccc31)CN(C)CC2)c1ccccc1` [Compound No. 347, (E)-ethyl 4-(2,8-dimethyl-3,4-dihydro-1H-pyrido[4,3-b]indol-5(2H)-yl)-3-phenylbut-2-enoate]: the inhibition at 1 µM in assay [1] amounted to 87%; in assay [2] it was 101%; in assay [3] (setting [6]), 101%; in assay [4] (setting [7]), 96%; in assay [5] (setting [8]), 111%.
For the compound `Cc1ccc2c(c1)c1c(n2CC(O)c2ccncc2)CCN(C)C1` (stereo not drawn) [Compound 180, 2-(2,8-dimethyl-3,4-dihydro-1H-pyrido[4,3-b]indol-5(2H)-yl)-1-(pyridin-4-yl)ethanol], the inhibition at 1 µM in assay [1] amounted to 24%; in assay [2], 72%; in assay [3] (setting [6]), 77%; in assay [4] (setting [7]), 84%; in assay [5] (setting [8]), 105%.
In the case of `Cc1ccc2c(c1)c1c(n2CC(O)(c2ccccc2)c2ccc(F)cc2)CCN(C)C1` (stereo not drawn) [Compound No. 176, 2-(2,8-dimethyl-3,4-dihydro-1H-pyrido[4,3-b]indol-5(2H)-yl)-1-(4-fluorophenyl)-1-phenylethanol], the inhibition at 1 µM in assay [1] worked out at 74%; in assay [2] it was 82%; in assay [3] (setting [6]) it was 65%; in assay [4] (setting [7]), 94%; in assay [5] (setting [8]), 95%.
Consider `C=C(Cn1c2c(c3cc(Cl)ccc31)CN(C)CC2)c1ccc(F)cc1` [Compound 128, 8-chloro-5-(2-(4-fluorophenyl)allyl)-2,3,4,5-tetrahydro-2-methyl-1H-pyrido[4,3-b]indole], for which the inhibition at 1 µM in assay [1] was 100%; in assay [2] it was 101%; in assay [3] (setting [6]) it was 98%; in assay [4] (setting [7]), 99%; in assay [5] (setting [8]), 120%. Further, the inhibition at 0.1 µM in assay [2] came to 94%.
Consider `Cc1ccc2c(c1)c1c(n2CC#Cc2ccccn2)CCN(C)C1` [Compound No. 500, 2,3,4,5-tetrahydro-2,8-dimethyl-5-(3-(pyridin-2-yl)prop-2-ynyl)-1H-pyrido[4,3-b]indole], for which the inhibition at 1 µM in assay [1] worked out at 30%; in assay [2], 18%; in assay [3] (setting [6]), 48%; in assay [4] (setting [9]), 72%; in assay [5] (setting [10]) it was 23%.
As to `COc1ccc(C#Cn2c3c(c4cc(Cl)ccc42)CN(C)CC3)cc1F` [Compound No. 477, 8-chloro-5-((3-fluoro-4-methoxyphenyl)ethynyl)-2-methyl-2,3,4,5-tetrahydro-1H-pyrido[4,3-b]indole], the inhibition at 1 µM came out at 97% in assay [1]; 89% in assay [2]; 65% in assay [3] (setting [6]); 97% in assay [4] (setting [9]); 107% in assay [5] (setting [10]).
With `CN1CCc2c(c3cc(Cl)ccc3n2CC(C)(O)c2cccnc2)C1` (stereo not drawn) [Compound 61, 1-(8-chloro-1,2,3,4-tetrahydro-2-methylpyrido[4,3-b]indol-5-yl)-2-(pyridin-3-yl)propan-2-ol], the inhibition at 1 µM was 41% in assay [1], 65% in assay [2], 76% in assay [4] (setting [7]) and 107% in assay [5] (setting [8]).
As to `COc1ccc(/C(C)=C/n2c3c(c4cc(Cl)ccc42)CN(C)CC3)cc1F` [Compound 93, (E)-8-chloro-5-(2-(3-fluoro-4-methoxyphenyl)prop-1-enyl)-2,3,4,5-tetrahydro-2-methyl-1H-pyrido[4,3-b]indole], the inhibition at 1 µM in assay [1] is 100%; in assay [2] it was 93%; in assay [4] (setting [7]), 94%; in assay [5] (setting [8]), 108%.

A word on the inhibition: it is the relative decrease from the control value, in per cent.
